Patent US20260344668A1, “PHENYLPYRAZOLE COMPOUND, AND PLANT DISEASE CONTROL METHOD” (priority 2022, published 2026)

Tests used:
[1] = test system: Cochliobolus miyabeanus; test: Test Example 6 Control Test Against Rice Brown Spot Fungus (96 well titer plate growth); assay type: cell-based; settings: 1 μL of 150 ppm DMSO solution + 150 μL YB liquid medium, 23° C., 3 days, absorbance at 550 nm
Protocol: (§1) The term of “non-treated well” in Test Example 4, Test Example 5, and Test Example 6 represents a well wherein a test was carried out under the same conditions as those described in each Test Example except for dispensing DMSO instead of a diluted solution with DMSO comprising the Present compound. Also, the term of “non-treated” in Test Examples 15 to 17 represents a test which was carried out under the same conditions as those described in each Test Example except for dispensing DMSO instead of a diluted solution with DMSO comprising the Present compound. Also, the term of “non-treated leaf disk” in Test Example 7 represents a leaf disk wherein a test was carried out under the same conditions as those described in the Test Example except for dispensing DMSO instead of a diluted solution with DMSO comprising the Present compound. Also, the term of “non-treated” in Test Example 10 and Test Example 11 means that a diluted solution with water of a formulation comprising the Present compound was not sprayed.
Each of the Present compound 17, 33, 36, 37, 39, 40, 41, 42, 43, 44, 48, 49, 50, 51, 52, 53, 62, 68, 69, 70, 71, 76, 77, 79, 80, 81, 82, 83, 84, or 97 was diluted with DMSO to obtain a diluted solution containing 150 ppm of each compound, and 1 μL of the diluted solution was dispensed into a titer plate (96 well), and thereto was then dispensed 150 μL of a YB liquid medium to which spores of Cochliobolus miyabeanus were inoculated in advance. This plate was cultured at 23° C. for 3 days, thereby allowing Cochliobolus miyabeanus to undergo proliferation, and the absorbance at 550 nm of each well of the titer plate was then measured to determine a degree of growth of Cochliobolus miyabeanus. As a result, the degree of growth in the well treated with each of the above Present compounds was 50% or less relative to the degree of growth in the non-treated well.

[2] = test system: Phakopsora pachyrhizi; test: Test Example 11 Control Test Against Soybean Rust (pot test, spraying before inoculation); assay type: in vivo; settings: 200 ppm foliage spray, soybeans (Kurosengoku), inoculated after 2 to 5 days
Protocol: as §1
A plastic pot was filled with soil, soybeans (cultivar: Kurosengoku) were seeded thereto, and cultured in a greenhouse for 10 to 14 days. The Present compound 9, 10, 11, 13, 14, 15, 17, 18, 20, 21, 22, 23, 26, 27, 33, 34, 35, 36, 37, 38, 39, 40, 41, 42, 43, 44, 46, 47, 53, 54, 55, 56, 57, 58, 66, 67, 68, 69, 70, 71, 73, 74, 75, 76, 77, 78, 79, 80, 81, 82, 83, 84, 85, 86, 87, 88, 89, 90, 91, 92, 93, 94, 95, 96, 97, 98, 99, 100, 101, or 102 formulated according to the method described in the Formulation Example 1 was mixed with water in such a way that the concentration thereof was 200 ppm, and the resulting mixture was sprayed to foliage of the above soybeans so as to adequately adhere onto the surfaces of leaves of the above soybeans. After spraying the mixture, the soybeans were air-dried. After 2 to 5 days, an aqueous suspension of spores of Phakopsora pachyrhizi was inoculated by spraying to the soybeans. After the inoculation, the soybeans were placed in a greenhouse at 23° C. in daytime and at 20° C. in nighttime under a humid condition for 1 to 2 day(s), then cultured in a greenhouse for 12 days, and then a lesion area was investigated. As a result, the lesion area in the soybeans treated with each of the above Present compound was 30% or less relative to the lesion area in the non-treated soybeans.

[3] = test system: soybean rust fungus (Phakopsora pachyrhizi) having an amino acid substitution of F129L in a mitochondrial cytochrome b protein; test: Test Example 7 Control Test Against Soybean Rust (leaf disk); assay type: in vivo; settings: 200 ppm, 10 μL per soybean leaf disk (cultivar: Kurosengoku), inoculated after 1 day
Protocol: as §1
A true leaf of a soybean (cultivar: Kurosengoku) was cut into a diameter of 1 cm to prepare each leaf disk. To each well of a 24 well microplate was dispensed 1 mL of an agar medium (agar concentration 1.2%), and then one of said leaf disk was placed on the agar medium in each well. To a mixture of Sorpol (registered trademark) 1200KX (0.5 μL), DMSO (4.5 μL), and xylene (5 μL) was added a DMSO solution (20 μL) comprising a test compound (10000 ppm), and the resulting mixture was mixed. The resulting mixture was diluted with ion exchange water to prepare a mixture comprising a prescribed concentration of the test compound.
The resulting mixture was sprayed into each leaf disk at a ratio of 10 μL per leaf disk. After 1 day, an aqueous suspension of spores of soybean rust fungus (Phakopsora pachyrhizi) having an amino acid substitution of F129L in a mitochondrial cytochrome b protein (1.0×10^5/mL) was inoculated by spraying on each leaf disk. After the inoculation, the microplate was placed into an artificial climate chamber (Lighting: 6 hours, Lights-out: 18 hours, Temperature: 23° C., Humidity: 60%). After 1 day, the leaf disks were air-dried until water droplets on the surfaces of the leaf disks disappeared, and the microplate was placed into the artificial climate chamber again for 12 days. Then, lesion area of soybean rust was investigated. As a result, when the prescribed concentration was 200 ppm, each lesion area of leaf disk treated with any one of the Present compound 9, 10, 11, 13, 14, 15, 16, 17, 18, 20, 32, 33, 34, 35, 36, 37, 38, 39, 40, 42, 43, 44, 47, 48, 49, 50, 51, 52, 53, 55, 56, 57, 58, 62, 63, 64, 65, 66, 67, 68, 69, 70, 71, 73, 74, 75, 76, 77, 78, 79, 80, 81, 82, 83, 84, 85, 86, 87, 88, 89, 90, 91, 92, 93, 94, 95, 96, 97, 98, 99, 100, 101, or 102 as the test compound was 30% or less relative to the lesion area of non-treated leaf disk.

[4] = test system: Phakopsora pachyrhizi; test: Test Example 15 Control Test Against Soybean Rust Fungus (spore germination, 96 well titer plate); assay type: cell-based; settings: treatment concentration 1 ppm, 23° C., several hours
Protocol: as §1
The Present compound was diluted with DMSO to obtain a diluted solution containing 150 ppm of the compound, and 1 μL of the diluted solution was dispensed into a titer plate (96 well), and thereto was then dispensed 149 μL of an aqueous suspension (1.0×10^4/mL) of spores of Phakopsora pachyrhizi to which spores of Phakopsora pachyrhizi were suspended in advance. This plate was cultured at 23° C. for several hours, and then germinated spores of Phakopsora pachyrhizi were counted. As a result, when the treatment concentration was 1 ppm, the number of germinated spores in each well comprising any one of the Present compound 1, 11, 17, 18, 20, 23, 30, 33, 34, 35, 36, 37, 38, 39, 40, 41, 42, 43, 44, 46, 47, 48, 49, 50, 51, 52, 53, 54, 55, 56, 57, 58, 62, 63, 64, 65, 66, 67, 68, 69, 70, 71, 72, 73, 74, 75, 76, 77, 78, 79, 80, 81, 82, 83, 84, 85, 86, 87, 88, 89, 90, 91, 92, 93, 94, 95, 96, 97, 98, 99, 100, 101, or 102 as the test compound was 50% or less relative to the number of germinated spores in the non-treated well.

SMILES | degree of growth relative to the degree of growth in the non-treated well [1] | lesion area relative to the lesion area in the non-treated soybeans [2] | lesion area relative to the lesion area of non-treated leaf disk [3] | number of germinated spores relative to the non-treated well [4]
O=[N+]([O-])c1ccc(-c2ccn(S(=O)(=O)c3cccs3)n2)cc1 [compound 44] | ≤ 50% | ≤ 30% | ≤ 30% | ≤ 50%
O=S(=O)(c1cccc(F)c1)n1ccc(-c2cc(F)c(Br)c(F)c2)n1 [compound 17] | ≤ 50% | ≤ 30% | ≤ 30% | ≤ 50%
O=S(=O)(c1ccco1)n1ccc(-c2ccc(Br)cc2)n1 [compound 49] | ≤ 50% |  | ≤ 30% | ≤ 50%
O=S(=O)(c1cccnc1)n1ccc(-c2ccc(Br)c(F)c2)n1 [compound 53] | ≤ 50% | ≤ 30% | ≤ 30% | ≤ 50%
Cn1nccc1S(=O)(=O)n1ccc(-c2cc(F)c(Br)c(F)c2)n1 [compound 48] | ≤ 50% |  | ≤ 30% | ≤ 50%
O=S(=O)(c1ccoc1)n1ccc(-c2cc(F)c(Br)c(F)c2)n1 [compound 36] | ≤ 50% | ≤ 30% | ≤ 30% | ≤ 50%
Cc1ccc(-c2ccn(S(=O)(=O)c3cccs3)n2)cc1 [compound 43] | ≤ 50% | ≤ 30% | ≤ 30% | ≤ 50%
Cc1ccc(-c2ccn(S(=O)(=O)c3ccoc3)n2)cc1F [compound 70] | ≤ 50% | ≤ 30% | ≤ 30% | ≤ 50%
O=S(=O)(c1ccco1)n1ccc(-c2ccc(I)cc2)n1 [compound 82] | ≤ 50% | ≤ 30% | ≤ 30% | ≤ 50%
Cc1ccc(-c2ccn(S(=O)(=O)c3cccnc3)n2)cc1F [compound 97] | ≤ 50% | ≤ 30% | ≤ 30% | ≤ 50%
O=S(=O)(c1cccs1)n1ccc(-c2ccc(Br)c(F)c2)n1 [compound 40] | ≤ 50% | ≤ 30% | ≤ 30% | ≤ 50%
O=S(=O)(c1ccco1)n1ccc(-c2ccc(Br)c(F)c2)n1 [compound 50] | ≤ 50% |  | ≤ 30% | ≤ 50%
Cc1ccc(-c2ccn(S(=O)(=O)c3ccco3)n2)cc1 [compound 76] | ≤ 50% | ≤ 30% | ≤ 30% | ≤ 50%
O=S(=O)(c1ccoc1)n1ccc(-c2ccc(I)cc2)n1 [compound 83] | ≤ 50% | ≤ 30% | ≤ 30% | ≤ 50%
O=S(=O)(c1ccoc1)n1ccc(-c2ccc(Br)c(F)c2)n1 [compound 52] | ≤ 50% |  | ≤ 30% | ≤ 50%
O=S(=O)(c1cccs1)n1ccc(-c2ccc(I)cc2)n1 [compound 84] | ≤ 50% | ≤ 30% | ≤ 30% | ≤ 50%
CSc1ccc(-c2ccn(S(=O)(=O)c3cccs3)n2)cc1 [compound 41] | ≤ 50% | ≤ 30% |  | ≤ 50%
O=S(=O)(c1ccoc1)n1ccc(-c2ccc(Br)cc2)n1 [compound 51] | ≤ 50% |  | ≤ 30% | ≤ 50%
O=S(=O)(c1cccs1)n1ccc(-c2ccc3c(c2)CCC3)n1 [compound 62] | ≤ 50% |  | ≤ 30% | ≤ 50%
